Results reported in the NIST ThermoML archive (doi:10.1021/je1001945).
Numbers after ± are expanded uncertainties.

Conditions: Crystal; visual observation

In the case of `c1ccc2cc3ccccc3cc2c1` [anthracene], the Normal melting temperature is reported as 215 ± 1 °C.
